Results published in patent US9527930B2, “FGF receptor-activating N-sulfate oligosaccharides, preparation thereof, and therapeutic use thereof” (priority 2009, dated 2016).

Biological target: FGF-2 (Homo sapiens, UniProt P09038)
Assay: in vitro cellular test of FGF-2 activation
Assay type: cell-based

Sequence of FGF-2 (P09038 143-288): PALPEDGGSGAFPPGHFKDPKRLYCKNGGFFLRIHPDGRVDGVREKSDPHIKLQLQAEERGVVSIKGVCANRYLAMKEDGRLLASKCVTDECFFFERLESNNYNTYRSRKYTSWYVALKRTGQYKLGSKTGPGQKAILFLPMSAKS

In the case of “Sodium [methyl(sodium 2-O-sodium sulfonato-α-L-idopyranosyluronate)-(1→4)-(2-deoxy-6-O-sodium sulfonato-2-sodium (sulfonatoamino)-α-D-glucopyranosyl)-(1→4)-[(sodium 2-O-sodium sulfonato-α-L-idopyranosyluronate)-(1→4)-(2-deoxy-6-O-sodium sulfonato-2-sodium sulfonatoamino)-α-D-glucopyranos)-(1→4)]2-2-O-sodium sulfonato-α-L-idopyranoside]uronate [Compound 3]”, the “FGF-2 activation compared with the hexasaccharide analogue (C. Tabeur et al.)” value is reported as “better FGF-2 activators than the hexasaccharide analogue thereof”.
